Consider five compounds from US20090111893A1, “METHOD OF LOWERING BLOOD GLUCOSE AND METHOD OF PREVENTING OR TREATING BLOOD GLUCOSE AND METHOD OF PREVENTING OR TREATING DIABETES AND OBESITY” (National University Corporation Gunma University, priority 2007, published 2009).

One data set has as its system Mouse 3T3-L1 fibroblasts. Kind of data set: Glucose uptake of confluent 3T3-L1 fibroblasts (glucose concentration in medium). In kind it is cell-based. To be noted: for glucose uptake-promoting activity: 3T3-L1 cells, same condition as Example 1, FIG. 3, n=3. As to the method:
(1) Mouse 3T3-L1 fibroblasts were cultured in 1 ml of a suitable medium (contained in a 12-well plastic dish) for several days until the cells reached confluence. Then, the cells were cultured for 10-12 hours in the nutrition medium (None), the nutrition medium to which only 0.2% ethanol, a solvent of DIF-1, was added (EtOH), and the nutrition medium to which 10 or 20 µM DIF-1 dissolved in ethanol was added, respectively, and then, glucose concentration in each of the media was determined, based on which glucose uptake rate of the cells was calculated and the ratio with respect to the control was plotted (FIG. 1). […] The data of FIG. 1 are shown by mean value and standard deviation (Bars) of four independent experiments (n=4). (2) Then, mouse 3T3L1 fibroblasts were cultured in 1 ml of a suitable medium (contained in a 12-well plastic dish) until the cells reached confluence. After changing the medium to a new medium (this time point corresponds to 0 hour in the graph), DIF-1 was added, and glucose concentration in the medium was measured at the time point of 20 hours (FIG. 2A), based on which glucose consumption rate was calculated (FIG. 2B). Then, the media were changed to new media containing no DIF-1 for all the samples, and after culture was continued for another 20 hours, glucose concentration was measured (FIG. 2A). The number of cells at this time point was also determined (FIG. 2C). The data of the graph are mean values and standard deviations (Bars) (n=3) of the results of triplicate samples evaluated under the same conditions.
Glucose uptake-promoting activity of DIF-1 and its artificial derivatives (2-MIDIF1, DMPH, THPH) were compared in the same condition as Example 1 (FIG. 3). The data of the graph are mean values and standard deviations (Bars) (n=3) of three independent experiments.
Glucose uptake-promoting activity of DIF-1 derivative compounds in 3T3-L1 cells was evaluated in the same manner as described above. The data of the graph are mean values and standard deviations (Bars) (n=3) of triplicate samples measured under the same conditions.

The subject of data set [1] is RGM-1 cells (isolated from rat gastric mucosa). In words: Glucose uptake of RGM-1 cells (glucose concentration in medium). In kind it is cell-based. On the procedure:
Similar experiments were performed with RGM-1 cells (isolated from rat gastric mucosa) to evaluate the change in glucose concentration in the medium containing DIF-1 or other compounds (FIG. 4). The data of the graph are mean values and standard deviations (Bars) (n=3) of triplicate samples measured under the same conditions.

For a further data set, the system named is 3T3-L1 adipocytes. Kind of data set: 2-deoxy glucose uptake in 3T3-L1 adipocytes, with or without insulin. Type of data set: cell-based, mouse. As to the method: Confluent 3T3-L1 fibroblasts (cultured in a 12-well plate) were treated with IBMX (3-isobutyl-1-methylxanhine), dexamethasone, and insulin to induce differentiation into 3T3-L1 adipocytes (Student A K, Hsu R Y & Lane M D (1980) J. Biol. Chem. 255, 4745-4750.). The 3T3-L1 adipocytes were cultured in the presence of DIF-1 whose concentration is shown in FIG. 5 for four hours, and 2-deoxy glucose uptake was measured. At the same time, some of the adipocytes were stimulated with 100 nM insulin during cultivation (after 3.5 hours) in the presence of DIF-1, and cultured for another 30 minutes, and glucose uptake of the cells was measured. Each experiment was performed in triplicates, and the mean values thereof were calculated in each experiment. Such experiments were performed twice and the mean values and ½ variance (Bars) of the two experiments (n=2) were plotted in FIG. 5.

Another data set has as its system KKAy diabetic model mice. In kind it is in vivo. The conditions noted are these: for blood glucose level as compared with the control group: KKAy mice, intraperitoneal 25, 50 and 100 mg/kg, 4 and 8 hours after administration, n=2, FIG. 6; for death of mice: mouse, in vivo. On the procedure: The in vivo effects of DIF-1 and DIF-1 (3M) were also evaluated with the KKAy diabetic model mice. The drugs were administered intraperitoneally to KKAy mice (male, 13 weeks: Clea Japan) at the concentrations of 25, 50, and 100 mg/kg, respectively, and after free feeding (Time 0), blood glucose level was monitored at the indicated time points (FIG. 6). Each of the experiments used two mice, and the mean values of the relative blood glucose concentrations and ½ variance (Bars)(n=2) were plotted.

The next data set concerns ICR mice. Kind of data set: Blood glucose level in ICR mice after intraperitoneal glucose. Type of data set: in vivo, mouse. The conditions noted are these: glucose 0.3 g/kg i.p. together with DIF-1, 50 mg/kg group and 100 mg/kg group, FIG. 7. On the procedure: Glucose (0.3 g/kg) was administered intraperitoneally to ICR mice (male, 6-7 weeks) together with DIF-1 (solvent: 5% DMSO, 5% CREMOPHOR, and 90% distilled water), and blood glucose level was determined from just after the administration. Mice to which only glucose was administered was used as a control group, and mice to which neither glucose nor DIF-1 was administered was used as a normal group.

As for `CCCCCC(=O)c1c(O)c(Cl)c(OC)c(Cl)c1O` [DIF-1], in the data set with Mouse 3T3-L1 fibroblasts (3T3-L1 fibroblasts in the presence of DIF-1), the “cell morphology and cell damage by microscopic observation” value is given as “cell damage was not observed”. The “glucose uptake ratio of the cell (ratio with respect to the control)” value in the data set with Mouse 3T3-L1 fibroblasts (3T3-L1 fibroblasts, 10-12 hours culture, 10 or 20 µM DIF-1, FIG. 1, n=4) is recorded as “increased dependently on DIF-1 concentration”. Moreover, the “glucose uptake of cells (glucose consumption rate)” value in the data set on Mouse 3T3-L1 fibroblasts (3T3-L1 fibroblasts, 20-hour culture with DIF-1, FIG. 2A/2B, n=3) was “promotes glucose uptake of cells in a concentration-dependent manner”. Besides, in the data set with Mouse 3T3-L1 fibroblasts (3T3-L1 fibroblasts, after 40-hour culture, FIG. 2C), the number of cells entry was “without influencing the number of cells”. Further, the “reversibility of the action on glucose uptake” value in the data set with Mouse 3T3-L1 fibroblasts (3T3-L1 fibroblasts, medium changed to DIF-1-free medium, another 20 hours, FIG. 2A) is “reversible”. Besides, in data set [1] (6- and 12-hour culture, FIG. 4), the glucose uptake entry is reported as “promotes glucose uptake in a concentration-dependent manner”. Besides, the cell number entry in data set [1] (after 12-hour culture, FIG. 4C) was “without influencing cell number”. Also, in the data set with 3T3-L1 adipocytes (DIF-1 singly, four hours, FIG. 5, n=2), the 2-deoxy glucose uptake result is on record as “promoted glucose uptake in a concentration-dependent manner”. The “2-deoxy glucose uptake with insulin” value in the data set with 3T3-L1 adipocytes (relatively low concentration of DIF-1 plus 100 nM insulin for the last 30 minutes, FIG. 5) was “additive effect with insulin”. For the same compound, in the data set with KKAy diabetic model mice, the “blood glucose level as compared with the control group” value is listed as “low blood glucose level” and the death of mice entry is reported as “No mice died”. In addition, in the data set on ICR mice, the “blood glucose level as compared with the control group” value was “significantly lowered blood glucose level”.
Regarding `C/C=C(/C)C(=O)O[C@H]1C(C)=C2[C@H]([C@@H]1OC(=O)CCCCCCC)[C@@](C)(OC(C)=O)C[C@H](OC(=O)CCC)[C@@]1(O)[C@H]2OC(=O)[C@@]1(C)O` [Tg, Thapsigargin, reference compound], in the data set on Mouse 3T3-L1 fibroblasts, the glucose uptake-promoting activity result is reported as “did not promote glucose uptake”.
With `COc1c(Cl)c(O)c(C(=O)CC(C)(C)C)c(O)c1Cl` [DIF-1 (3M)], in the data set on KKAy diabetic model mice, the “blood glucose level as compared with the control group” value is recorded as “low blood glucose level” and the death of mice result is on record as “No mice died”.
As for `COCc1nc2c([nH]1)c(=O)n(C)c(=O)n2CC(C)C` [8-MIBMX, reference compound], the glucose uptake-promoting activity entry with Mouse 3T3-L1 fibroblasts is reported as “did not promote glucose uptake”.
Still for that read-out and setting: next, `CNc1ccc2oc(C[C@H]3O[C@@]4(CC[C@H]3C)O[C@H]([C@H](C)C(=O)c3ccc[nH]3)[C@H](C)C[C@H]4C)nc2c1C(=O)O` [A23187, reference compound]: “did not promote glucose uptake”.
